What follows are molecules tested against T1, DP receptor (Homo sapiens, UniProt Q13258) (assay: SPA cAMP assay in human LS174 T cells (human DP functional assay)). Conditions: inhibition of PGD2 (15 nM)-stimulated cAMP, LS174T cells expressing endogenous DP receptor.
T1 construct: using the human cell line LS174T, which expresses the endogenous DP receptor; endogenous in cells; host or cells: LS174T human cell line
T1 sequence (Q13258 1-359): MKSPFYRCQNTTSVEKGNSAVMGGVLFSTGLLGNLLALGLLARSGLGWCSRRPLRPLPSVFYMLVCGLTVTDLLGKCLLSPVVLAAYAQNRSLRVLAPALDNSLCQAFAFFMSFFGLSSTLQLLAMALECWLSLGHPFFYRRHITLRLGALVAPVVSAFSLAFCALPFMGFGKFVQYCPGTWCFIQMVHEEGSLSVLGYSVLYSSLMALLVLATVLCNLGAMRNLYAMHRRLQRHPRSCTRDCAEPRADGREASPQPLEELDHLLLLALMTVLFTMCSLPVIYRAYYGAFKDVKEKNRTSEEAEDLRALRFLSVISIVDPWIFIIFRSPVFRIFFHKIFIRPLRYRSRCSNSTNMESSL
Assay type: cell-based
Method: The inhibitory effects of the compounds according to the invention are assessed in a human DP functional assay. A cAMP assay is employed using the human cell line LS174T, which expresses the endogenous DP receptor. The protocol is similar to that described previously (Wright D H, Ford-Hutchinson A W, Chadee K, Metters K M, The human prostanoid DP receptor stimulates mucin secretion in LS174T cells, Br J Pharmacol. 131(8):1537-45 (2000)).
Protocol for SPA cAMP Assay in Human LS174 T Cells
• PGD2 (Cayman Chemical Cat#12010) • IBMX (Sigma Cat# 5879) • cAMP SPA direct screening assay system (Amersham code RPA 559) • 96-well cell plates (Wallac Cat# 1450-516) • Wallac 1450 Microplate Trilux scintillation counter (PerkinElmer) • Plate sealers • Eppendorf tubes • Dulbecco's Phosphate-Buffered Saline (PBS) (Invitrogen Cat#14040-133) • Distilled water • Vortex • Magnetic stirrer and stirrer bars Reagent Preparation:
All reagents should be allowed to equilibrate to room temperature before reconstitution.
Transfer the contents of the bottle to a 500 mL graduated cylinder by repeated washing with distilled water. Adjust the final volume to 500 mL with distilled water and mix thoroughly.
Dissolve each of the lysis reagents 1 and 2 in 200 mL assay buffer respectively. Leave at room temperature for 20 minutes to dissolve.
Add 30 mL of lysis buffer 2 to the bottle. Gently shake the bottle for 5 minutes.
Add 15 mL of lysis buffer 2 to each vial, and gently mix until the contents are completely dissolved.
Add 14 mL lysis buffer 2 to each vial and gently mix until the contents are completely dissolved.
Preparation of Immunoreagent
• 1) Add equal volumes of tracer, antiserum and SPA anti-rabbit reagent to a bottle, ensuring that a sufficient volume of this mixture is prepared for the desired number of wells (150 μL/well). • 2) Mix thoroughly. • 3) This immunoreagent solution should be freshly prepared before each assay and not re-used. Standard • 1) Add 1 mL lysis buffer 1 and gently mix until contents are completely dissolved. • 2) The final solution contains cAMP at a concentration of 512 pmol/mL. • 3) Label 7 polypropylene or polystyrene tubes, 0.2 pmol, 0.4 pmol, 0.8 pmol, 1.6 pmol, 3.2 pmol, 6.4 pmol and 12.8 pmol. • 4) Pipette 500 μL of lysis buffer 1 into all the tubes. • 5) Into the 12.8 pmol tube pipette 500 μL of stock standard (512 pmol/mL) and mix thoroughly. Transfer 500 μL from 12.8 pmol tube to the 6.4 pmol tube and mix thoroughly. Repeat this doubling dilution successively with the remaining tubes.
6) 50 μL aliquots in duplicate from each serial dilution and the stock standard will give rise to 8 standard levels of cAMP ranging from 0.2-25.6 pmol standard
Add 50 μL of […] IBMX into 100 mL PBS to make a final concentration of 100 μM and sonicate at 30° C. for 20 minutes.
Dissolve 1 mg PGD2 (FW, 352.5) in 284 μL DMSO to make 10 mM stock solution and store at […]. Before each assay, it is freshly prepared. Add 3 μL of 10 mM stock solution to 20 mL DMSO, mix it thoroughly, and transfer 10 mL to 40 mL PBS.
Compound dilution is carried out in Biomex 2000 (Beckman) using Method 1_cAMP DP 11 points.
5 μL of each compound from the 10 mM stock compound plates is transferred to the wells of a 96-well plate respectively as below.
Fill the plate with 45 μL of DMSO except column 7 is filled with 28 μL DMSO. Pipette column 1 thoroughly, and transfer 12 μL into column 7 parallel. Perform 1:10 serial dilution from column 1 to column 6 and from column 7 to column 11 by transfer 5 μL to 45 μL DMSO to make following concentrations:
Fill a new 96-well plate with 247.5 μL of compound dilution buffer. Transfer 2.5 μL of serially diluted compounds from above plate to the new plate (1:100 dilution) as following:
Cell Growth • 1. LS174 T are always grown in MEM (ATCC Cat# 30-2003), 10% FBS (ATCC Cat# 30-2020) and additional 2 mM L-glutamine, at 37° C. and 5% CO2. • 2. Warm 0.05% Trypsin and Versine (Invitrogen Cat# 25300-054) at 37° C. water bath. • 3. […]

SMILES	IC50 [nM]
CC(C)(C)c1ccc2[nH]c(-c3ccc(Cl)c(S(=O)(=O)NC4CCCCC4)c3)c(CC(=O)O)c2c1 [Example 1(s), [5-tert-Butyl-2-(4-chloro-3-cyclohexylsulfamoyl-phenyl)-1H-indol-3-yl]-acetic acid]	4
COC(=O)[C@@H](NC(=O)Cc1c(-c2ccc(Cl)c(S(=O)(=O)NC3CCCCC3)c2)[nH]c2ccccc12)C(C)C [Example 3(a), (S)-2-{2-[2-(4-chloro-3-cyclohexylsulfamoyl-phenyl)-1H-indol-3-yl]-acetylamino}-3-methyl-butyric acid methyl ester]	160
O=C(O)c1ccc2cc(-c3ccc(Cl)c(S(=O)(=O)NC4CCCCC4)c3)[nH]c2c1 [Example 16, 2-(4-Chloro-3-cyclohexylsulfamoyl-phenyl)-1H-indole-6-carboxylic acid]	510
Cc1ccc(-c2[nH]c3ccccc3c2CC(=O)O)cc1S(=O)(=O)NC1CCCCC1 [Example 10(k), [2-(3-Cyclohexylsulfamoyl-4-methyl-phenyl)-1H-indol-3-yl]-acetic acid]	2
O=C(O)Cc1c(-c2ccc(Cl)c(S(=O)(=O)NC3CCOCC3)c2)[nH]c2ccccc12 [Example 1(o), {2-[4-Chloro-3-(tetrahydro-pyran-4-ylsulfamoyl)-phenyl]-1H-indol-3-yl}-acetic acid]	52
O=C(O)Cc1c(-c2ccc(Cl)c(S(=O)(=O)NC3Cc4ccccc4C3)c2)[nH]c2ccccc12 [Example 1(d), {2-[4-Chloro-3-(indan-2-ylsulfamoyl)-phenyl]-1H-indol-3-yl}-acetic acid]	9.6
COc1ccc(-c2[nH]c3ccccc3c2CC(=O)O)cc1S(=O)(=O)NC1CCCCC1 [Example 10(i), [2-(3-Cyclohexylsulfamoyl-4-methoxy-phenyl)-1H-indol-3-yl]-acetic acid]	63
